Data published in patent US20080318892A1, “METHODS AND FORMULATIONS FOR PROTECTING CELLS, AND FOR TREATING DISEASES AND CONDITIONS BY OPTIMIZING THE INTRACELLULAR CONCENTRATION OF NAD” (priority 2007, published 2008).

Key:
Nampt = target: T1, Nampt (Homo sapiens, UniProt P43490); assay: Nicotinamide phosphoribosyltransferase (Nampt/PBEF) activity in SMC lysates, [14C]nicotinamide to NMN; assay type: cell-based; conditions: human Nampt cDNA by retrovirus
T1 construct: endogenous in cells; host or cells: human vascular SMCs (primary and HITC6), whole cell lysates
T1 sequence (P43490 whole entry): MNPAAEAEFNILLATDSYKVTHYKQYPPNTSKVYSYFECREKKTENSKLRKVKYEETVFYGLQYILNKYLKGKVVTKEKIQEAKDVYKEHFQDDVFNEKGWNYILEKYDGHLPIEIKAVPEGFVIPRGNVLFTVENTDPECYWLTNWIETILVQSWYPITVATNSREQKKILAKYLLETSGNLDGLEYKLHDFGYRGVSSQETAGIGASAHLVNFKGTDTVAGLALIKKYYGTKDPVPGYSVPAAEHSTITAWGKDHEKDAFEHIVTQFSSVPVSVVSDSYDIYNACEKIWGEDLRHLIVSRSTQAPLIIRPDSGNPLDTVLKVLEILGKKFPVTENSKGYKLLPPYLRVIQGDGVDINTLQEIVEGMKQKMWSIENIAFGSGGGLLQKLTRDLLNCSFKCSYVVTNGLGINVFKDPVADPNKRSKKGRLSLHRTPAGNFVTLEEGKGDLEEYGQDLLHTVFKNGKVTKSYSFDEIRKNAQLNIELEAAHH
Method: Nicotinamide Phosphoribosyltransferase Activity. […] Labelled acetone-precipitable nicotinamide mononucleotide was quantified by scintillation counting.
Assessment of Nicotinamide Phosphoribosyltransferase Activity. […] Briefly, SMCs were lysed in buffer containing 10 mM NaH2PO4/Na2HPO4, at pH 8.8. Cell lysates were incubated with 0.5 μM [carbonyl-^14C]nicotinamide and 0.5 mM phosphoribosylpyrophosphate for 4 h on a rotating rocker at 37° C.

HDAC = assay: Histone deacetylase (HDAC) assay in SMC lysates with [3H]-acetylated histone H4 peptide; assay type: biochemical, human; conditions: HITC6-PBEF SMC lysates, vehicle
Method: HITC6 SMC's were stably transduced with pQXCIP-PURO or pQXCIP-PBEF-PURO and HDAC activity determined in cell lysates (25 μg of protein), using [^3H]histone H4 peptide as the substrate. The reactions were quenched by acid hydrolysis and catalytically released [^3H]-acetate was extracted in ethyl acetate.
Histone Deacetylase (HDAC) Assays were employed. Histone H4 peptide (Upstate) was labeled with [^3H]-acetyl Coenzyme A (ICN) using PCAF histone acetylase. Cell lysates were harvested using Passive Lysis Buffer (Promega) and 25 μg of protein was incubated at 37° C. for 6 hours with 50,000 cpm of [^3H]-acetyl histone and 1 mM PMSF in HDAC Assay Buffer (Upstate). Released [^3H]-acetate was extracted with ethyl acetate (31) and counted on a Beckman LS3801 scintillation counter.

HITB5 SMC's [1] = assay: SMC proliferation (cell accumulation over 11 days); assay type: cell-based, human; conditions: PBEF-overexpressing HITB5 SMCs, 5% serum, p<0.01 vs EGFP control
Method: (§1) Cell Proliferation, DNA Synthesis, and Apoptosis were also evaluated. To assess SMC proliferation, cells were plated at a density of 3000 cells per cm^2 and cultured in M199 containing 5% FBS. Triplicate wells were harvested at the designated times and counted using a hemacytometer. To quantify DNA synthesis, cells in log-phase growth were incubated for 12 hours with [^3H]thymidine (10 μCi/mL) and TCA-precipitable counts determined as described (5). Thymidine incorporation was expressed relative to DNA content, quantified by spectrofluorimetry of an aliquot of cell lysate incubated with 500 μg/ml Hoechst 33258. Apoptosis was assessed in SMCs seeded on glass coverslips by in situ end-labeling of DNA fragments using terminal deoxynucleotide transferase and fluorescein 12-dUTP (Promega) (5). Cells were fixed with 4% paraformaldehyde and counterstained with Hoechst 33258.

HITB5 SMC's [2] = assay: DNA synthesis ([3H]thymidine incorporation); assay type: cell-based, human; conditions: PBEF-overexpressing HITB5 SMCs
Method: as §1

HITB5 SMC's [3] = assay: Apoptosis by TUNEL; assay type: cell-based, human; conditions: PBEF-overexpressing HITB5 SMCs; p<0.01
Method: as §1

[4] = tested on: fibroblasts derived from a subject with HGPS; assay: Replicative lifespan of HGPS fibroblasts; assay type: cell-based, human; conditions: HGPS fibroblasts transduced with Nampt cDNA
Method: Cell Culture. Experiments were performed using primary human vascular SMCs derived by outgrowth from fragments of internal thoracic artery and the HITC6 SMC clonal line, also originally generated from the human internal thoracic artery (Li, 2001). Derman fibroblasts from an individual with Hutchinson-Gilford Progeria Syndrome (HGPS) were obtained from Coreill Cell Repository.
To quantify replication, cells were plated at 4500 cells/cm^2 and growth medium with 10% FBS was changed every two days until cells reached 90-95% confluence. Harvested cells were counted from triplicate plates and the number of population doublings was calculated based on: [log10(number of cells harvested)−log10(number of cells seeded)]/[…] (Fukuhara, 2005). Population growth curves were compared using both nonlinear regression and two-way analysis of variance.

[5] = tested on: human aortic endothelial cells; assay: Longevity and genomic stability (tetraploidy) of human aortic endothelial cells under glucose stress; assay type: cell-based; conditions: for longevity: cells overexpressing NamPT
Description: Generation of Nampt-overexpressing HAEC populations. HAEC were infected with retrovirus encoding an eGFP-Nampt fusion protein. A control population was infected with eGFP alone. Transduced HAEC were FACS selected for low (eGFP-Namptlo) and high (eGFP-Nampthi) levels of transgene expression based on GFP fluorescence. Control cells were selected to achieve eGFP expression (eGFP+) at a level similar to the eGFP-Namptlo cells. Levels of GFP fluorescence were confirmed by microscopy.
Assessment of longevity and genomic stability. Triplicate cell populations were plated at 1000 cells/cm2 and were serially subcultured at 80% confluence until growth curves reached plateau. Population doublings were calculated using the standard formula. At certain time points cells were harvested, fixed, and DNA content was analyzed. Tetraploid cells were counted as a proportion of the total population using ModFit software.

PBEF: 52-55 kD protein, rate-limiting enzyme for NAD+ biosynthesis from nicotinamide; tested by retroviral cDNA overexpression in cells
increase in Nampt activity in stably transduced SMCs (Nampt): 7.1±3.1 fold
total HDAC activity vs HITC6-Vector SMC's (HDAC): significantly greater
doubling time (HITB5 SMC's [1]): 5.4 days
thymidine incorporation vs control cells (HITB5 SMC's [2]): no detectable difference
proportion of apoptotic SMC's relative to HITB5-EGFP SMC's (HITB5 SMC's [3]): approximately half
cell lifespan extension [4]: also seen
age- or high glucose-induced tetraploidy ([5]; Nampt overexpressing cells): no occurrence
longevity ([5]; glucose stress (30 mM glucose)): significantly augmented longevity
longevity ([5]; normal glucose (5 mM)): mildly improved longevity
